“And” between values parts separate entries of the source, which are not always exact repeats. Equal entries are not always repeated. “Also recorded” adds a separate entry of the source.
Columns and labels:
5-HT1A receptor = target: T1, 5-HT1A receptor (Homo sapiens, UniProt P08908); test: cAMP-Glo assay of 5-HT1A receptor modulation, +5-HT1A (CHO-K1/5-HT1A/Ga15) vs -5-HT1A (CHO-K1/Ga15) cells; format: cell-based; set-up: dose or concentration left out as unconfirmed; details: +5-HT1A vs -5-HT1A cell cultures stimulated with forskolin, increasing ligand concentrations
T1 construct: host or cells: CHO-K1 (co-expressing Ga15)
T1 sequence (P08908 1-422): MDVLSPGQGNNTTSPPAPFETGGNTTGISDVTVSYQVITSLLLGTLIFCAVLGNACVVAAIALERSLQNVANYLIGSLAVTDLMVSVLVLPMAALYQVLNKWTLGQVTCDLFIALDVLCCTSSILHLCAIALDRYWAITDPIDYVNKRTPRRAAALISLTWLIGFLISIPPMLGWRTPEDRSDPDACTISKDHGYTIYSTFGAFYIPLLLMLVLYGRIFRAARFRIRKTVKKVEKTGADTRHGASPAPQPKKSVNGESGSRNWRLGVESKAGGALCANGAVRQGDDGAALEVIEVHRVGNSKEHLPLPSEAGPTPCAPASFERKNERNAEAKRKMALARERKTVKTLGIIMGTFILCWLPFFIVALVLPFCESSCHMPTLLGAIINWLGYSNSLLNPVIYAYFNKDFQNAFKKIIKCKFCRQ

[1] = target: T2, neuronal 5-HT2A receptor (5-HT2AR) (Mus musculus, UniProt P35363); test: Drug-induced Head Twitch Response (HTR) in mice; format: in vivo, C57BL/6-Elite mice; details: 1 mg/kg i.p., 15-to-30-minute window post-drug, relative to vehicle-treated control mice
T2 construct: HTR was measured in mice treated with a control and test compounds; tissue Charles River; host or cells: live C57BL/6-Elite mice (neuronal receptor)
T2 sequence (P35363 whole entry): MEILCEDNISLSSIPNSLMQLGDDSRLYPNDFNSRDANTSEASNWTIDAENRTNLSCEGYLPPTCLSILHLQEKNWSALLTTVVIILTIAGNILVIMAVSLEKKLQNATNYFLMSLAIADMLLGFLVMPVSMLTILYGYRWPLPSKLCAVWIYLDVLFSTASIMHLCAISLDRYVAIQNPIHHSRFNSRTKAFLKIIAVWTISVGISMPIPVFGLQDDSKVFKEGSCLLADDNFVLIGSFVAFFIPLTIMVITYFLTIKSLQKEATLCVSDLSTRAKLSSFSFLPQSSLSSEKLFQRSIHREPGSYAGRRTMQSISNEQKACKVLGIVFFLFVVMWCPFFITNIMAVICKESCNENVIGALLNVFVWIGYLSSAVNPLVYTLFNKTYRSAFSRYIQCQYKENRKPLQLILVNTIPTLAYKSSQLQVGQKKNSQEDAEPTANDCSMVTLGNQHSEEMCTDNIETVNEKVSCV

[2] = Mouse pharmacokinetic (PK) study, parent compound and psilocin metabolite in plasma; format: in vivo, C57Bl/6 mice; details: for F(%) / F(%), M37 considered as an outlier: AUC0-tlast used for p.o. group; for F(%): value might be under-estimated; for F(%), M37 considered as an outlier: i.v. animal M37 considered an outlier
Description: Briefly, the procedure was as follows. […] 19, 2022.

[3] = 1 mg/kg i.v. C(I), 6 h, individual animals
[4] = 1 mg/kg i.v. C(I), 8 h, individual animals
[5] = 1 mg/kg oral C(I), 8 h, individual animals
[6] = 1 mg/kg oral C(I), 24 h, individual animals
[7] = 1 mg/kg oral, individual animals
[8] = 3 mg/kg oral C(I), 24 h, individual animals
[9] = 3 mg/kg oral, individual animals
[10] = 10 mg/kg oral C(I), 24 h, individual animals

CN(C)CCc1c[nH]c2cccc(OC(=O)c3ccc(Br)cc3)c12 [C(I)]
5-HT1A receptor modulation (reduction of cAMP levels) (5-HT1A receptor): mild receptor modulation at higher ligand concentrations
Incidences of Head Twitch Response (HTR) [1]: Elevated incidences of HTR
Plasma concentration of C(I) ([2]; 1 mg/kg i.v. C(I), 5 min, individual animals): 2620 ng/mL and 118 ng/mL and 94.4 ng/mL
Plasma concentration of C(I) ([2]; 1 mg/kg i.v. C(I), 0.25 h, individual animals): 1250 ng/mL and 58.5 ng/mL and 48.2 ng/mL
Plasma concentration of C(I) ([2]; 1 mg/kg i.v. C(I), 0.5 h, individual animals): 348 ng/mL and 33.4 ng/mL and 30.4 ng/mL
Plasma concentration of C(I) ([2]; 1 mg/kg i.v. C(I), 1 h, individual animals): 128 ng/mL and 17.9 ng/mL and 13.8 ng/mL
Plasma concentration of C(I) ([2]; 1 mg/kg i.v. C(I), 2 h, individual animals): 52.8 ng/mL and 3.61 ng/mL and 3.40 ng/mL
Plasma concentration of C(I) ([2]; 1 mg/kg i.v. C(I), 4 h, individual animals): 8.88 ng/mL and 0.984 ng/mL and 0.509 ng/mL
Plasma concentration of C(I) [2, 3]: 4.65 ng/mL and 0.363 ng/mL and BLQ (BLQ denotes below the lower limit of quantitation (0.5 ng/mL).)
Plasma concentration of psilocin [2, 3]: BLQ (BLQ denotes below the lower limit of quantitation (0.2 ng/ml).)
Plasma concentration of C(I) [2, 4]: BLQ (BLQ denotes below the lower limit of quantitation (0.5 ng/mL).); also recorded: No Peak
Plasma concentration of psilocin [2, 4]: BLQ (BLQ denotes below the lower limit of quantitation (0.2 ng/ml).)
Plasma concentration of C(I) ([2]; 1 mg/kg oral C(I), 0.25 h, individual animals): 0.617 ng/mL and 0.410 ng/mL and 0.910 ng/mL
Plasma concentration of C(I) ([2]; 1 mg/kg oral C(I), 0.5 h, individual animals): 0.816 ng/mL and 0.535 ng/mL and 1.28 ng/mL
Plasma concentration of C(I) ([2]; 1 mg/kg oral C(I), 1 h, individual animals): BLQ (BLQ denotes below the lower limit of quantitation (0.5 ng/mL).) and 1.02 ng/mL
Plasma concentration of C(I) ([2]; 1 mg/kg oral C(I), 2 h, individual animals): BLQ (BLQ denotes below the lower limit of quantitation (0.5 ng/mL).) and 0.600 ng/mL
Plasma concentration of C(I) ([2]; 1 mg/kg oral C(I), 4 h, individual animals): BLQ (BLQ denotes below the lower limit of quantitation (0.5 ng/mL).)
Plasma concentration of C(I) ([2]; 1 mg/kg oral C(I), 6 h, individual animals): BLQ (BLQ denotes below the lower limit of quantitation (0.5 ng/mL).)
Plasma concentration of C(I) [2, 5]: BLQ (BLQ denotes below the lower limit of quantitation (0.5 ng/mL).)
Plasma concentration of psilocin [2, 5]: BLQ (BLQ denotes below the lower limit of quantitation (0.2 ng/ml).)
Plasma concentration of C(I) [2, 6]: No Peak and No (2×)
Plasma concentration of psilocin [2, 6]: No Peak; also recorded: BLQ (BLQ denotes below the lower limit of quantitation (0.2 ng/ml).)
F(%) [2, 7]: 0.554% and 0.0450% and 0.465%
F(%), M37 considered as an outlier [2, 7]: 3.59% and 0.291% and 3.01%
F(%), M37 considered as an outlier ([2]; 1 mg/kg oral, mean ± SD): 2.30 ± 1.76% and 2.30%
Plasma concentration of C(I) ([2]; 3 mg/kg oral C(I), 0.25 h, individual animals): 2.13 ng/mL and 2.34 ng/mL
Plasma concentration of C(I) ([2]; 3 mg/kg oral C(I), 0.5 h, individual animals): 2.16 ng/mL and 1.99 ng/mL
Plasma concentration of C(I) ([2]; 3 mg/kg oral C(I), 1 h, individual animals): 1.56 ng/mL and 1.33 ng/mL
Plasma concentration of C(I) ([2]; 3 mg/kg oral C(I), 2 h, individual animals): 0.705 ng/mL and 0.720 ng/mL
Plasma concentration of C(I) ([2]; 3 mg/kg oral C(I), 4 h, individual animals): 0.569 ng/mL and 0.873 ng/mL and 1.28 ng/mL
Plasma concentration of C(I) ([2]; 3 mg/kg oral C(I), 6 h, individual animals): 0.310 ng/mL and 0.250 ng/mL
Plasma concentration of C(I) ([2]; 3 mg/kg oral C(I), 8 h, individual animals): BLQ (BLQ denotes below the lower limit of quantitation (0.5 ng/mL).)
Plasma concentration of C(I) [2, 8]: No Peak
Plasma concentration of psilocin [2, 8]: No Peak
F(%) [2, 9]: 0.484% and 0.523%
F(%), M37 considered as an outlier [2, 9]: 3.02% and 3.13% and 3.39%
F(%), M37 considered as an outlier ([2]; 3 mg/kg oral, mean ± SD): 3.18 ± 0.189% and 3.18%
Plasma concentration of C(I) ([2]; 10 mg/kg oral C(I), 0.25 h, individual animals): 3.73 ng/mL and 6.07 ng/mL
Plasma concentration of C(I) ([2]; 10 mg/kg oral C(I), 0.5 h, individual animals): 7.10 ng/mL and 10.9 ng/mL
Plasma concentration of C(I) ([2]; 10 mg/kg oral C(I), 1 h, individual animals): 5.29 ng/mL and 7.46 ng/mL
Plasma concentration of C(I) ([2]; 10 mg/kg oral C(I), 2 h, individual animals): 2.51 ng/mL and 1.47 ng/mL and 3.80 ng/mL
Plasma concentration of C(I) ([2]; 10 mg/kg oral C(I), 4 h, individual animals): 2.06 ng/mL and 3.01 ng/mL
Plasma concentration of C(I) ([2]; 10 mg/kg oral C(I), 6 h, individual animals): 1.18 ng/mL and 0.661 ng/mL
Plasma concentration of C(I) ([2]; 10 mg/kg oral C(I), 8 h, individual animals): 0.253 ng/mL and 1.10 ng/mL and 0.283 ng/mL
Plasma concentration of C(I) [2, 10]: No (2×) and No Peak
Plasma concentration of psilocin [2, 10]: BLQ (BLQ denotes below the lower limit of quantitation (0.2 ng/ml).)
F(%), M37 considered as an outlier ([2]; 10 mg/kg oral, individual animals): 2.71% and 2.90% and 4.06%
